The values that follow come from US11236086B2, “Substituted pyrrolopyridines as inhibitors of activin receptor-like kinase” (BLUEPRINT MEDICINES CORPORATION, priority 2017, dated 2022).

A value given as a limit tells only on which side of the number the result lay.

One assay concerns the target T1, human ALK2 R206H (Homo sapiens, UniProt Q04771, R206H).
T1 construct: expressed in transfected cells; host or cells: HEK293 (ATCC CRL1573), lentivirus transduction, blasticidin selection
T1 sequence (Q04771 21-509 R206H): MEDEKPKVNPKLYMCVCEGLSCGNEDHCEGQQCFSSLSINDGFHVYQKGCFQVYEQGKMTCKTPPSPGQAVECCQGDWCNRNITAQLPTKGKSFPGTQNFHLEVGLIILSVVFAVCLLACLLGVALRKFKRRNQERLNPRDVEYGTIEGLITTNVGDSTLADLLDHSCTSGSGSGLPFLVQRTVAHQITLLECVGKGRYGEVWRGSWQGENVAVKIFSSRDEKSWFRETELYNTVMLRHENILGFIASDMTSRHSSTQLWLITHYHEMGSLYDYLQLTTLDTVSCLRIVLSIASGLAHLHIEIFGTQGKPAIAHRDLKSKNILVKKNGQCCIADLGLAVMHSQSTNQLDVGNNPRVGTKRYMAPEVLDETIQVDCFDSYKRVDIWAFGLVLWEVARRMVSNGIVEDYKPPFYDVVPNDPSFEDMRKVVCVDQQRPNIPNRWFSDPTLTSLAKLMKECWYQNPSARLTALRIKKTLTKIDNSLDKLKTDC
Nature of the assay: Cell-based ALK2-R206H cell activity assay (Smad1-Ser463/Ser465 phosphorylation by AlphaLISA in HEK293-ALK2-R206H cells). As to conditions: phospho-Smad1 AlphaLISA, read-out: Cell Line (Cell Assay, IC50 class). Put shortly: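 HEK293 stable line expressing human ALK2 R206H with C-terminal FLAG, plated overnight in serum-free medium. Cells were treated 2-3 h with compound over 10 3-fold doses, top 10 μM or 1 μM, in duplicate. Phospho-Smad1 Ser463/465 in lysate was read by AlphaLISA; IC50 was normalised to DMSO (0%) and 1 μM LDN193189 (100%).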
(Bead proximity is the source of the signal in Alpha formats.)

Assay [1] has as its target T2, ALK2R206H (mutant ALK2, N-terminally tagged with GST) (Homo sapiens, UniProt Q04771, R206H).
T2 construct: purchased Carna Bioscience or ThermoFisher 09-148 or PV6232
T2 sequence (Q04771 21-509 R206H): T1 sequence (Q04771 21-509 R206H)
Nature of the assay: ALK binding assay (LANTHASCREEN TR-FRET competitive binding, displacement of Kinase Tracer 178). As to conditions: read-out: Binding Assay (IC50 class). In outline:
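GST-tagged ALK2 R206H (2-5 nM) mixed with Eu-anti-GST antibody (4-10 nM), Kinase Tracer 178 (50 nM, near its Kd) and compound titration (1% DMSO) in Kinase Buffer A, 30 min at room temperature. Tracer displacement read as TR-FRET ratio, normalized to controls; IC50 from 4-parameter fit.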
In general terms: Time-resolved FRET reads energy transfer from a long-lived donor to a nearby acceptor.

`O=C(OC1COC1)N1CCN(c2ccnc3[nH]c(-c4ccc(C5(O)CCOCC5)cc4)cc23)CC1` [Compound 445]: the IC50 was at most 100 nM at human ALK2 R206H and at most 10 nM in assay [1].
As to `O=C(OC1COC1)N1CCN(c2ccnc3[nH]c(-c4ccc(C5(O)CCOCC5)cn4)cc23)CC1` [Compound 446], the results for the IC50 (at human ALK2 R206H; in assay [1]) were at most 100 nM and at most 10 nM, respectively.
Consider `CC(=O)N1CCc2nc(-c3cc4c(N5CCN(C(=O)OC6COC6)CC5)ccnc4[nH]3)sc2C1` [Compound 447], for which the values for the IC50 (on human ALK2 R206H; in assay [1]) were at most 100 nM and at most 10 nM, respectively.
As for `O=C(OCC(F)F)N1CCN(c2ccnc3[nH]c(-c4nc5c(s4)COCC5)c(Cl)c23)CC1` [Compound 449], the IC50 at human ALK2 R206H is at most 100 nM; in assay [1], at most 10 nM.
Consider `O=C(OC1COC1)N1CCN(c2ccnc3[nH]c(-c4csc(N5CCC(O)CC5)n4)cc23)CC1` [Compound 450], for which the IC50 at human ALK2 R206H was 100 to 500 nM; in assay [1], at most 10 nM.
Take `O=C(C1CC1)N1CCN(c2ccnc3[nH]c(-c4ccc(C5CCN(C6COC6)CC5)cc4)cc23)CC1` [Compound 451]: the IC50 on human ALK2 R206H is at most 100 nM; in assay [1], at most 10 nM.
Consider `O=C(C1CC1)N1CCN(c2ccnc3[nH]c(-c4ccc(N5CCN(C6COC6)CC5)cc4)cc23)CC1` [Compound 452], for which the IC50 at human ALK2 R206H is at most 100 nM; in assay [1], at most 10 nM.
On to `O=C(C1CC1)N1CCN(c2ccnc3[nH]c(-c4ccc(N5CCN6CCOCC6C5)cc4)cc23)CC1` (stereo not shown) [Compound 453], for which the results for the IC50 (on human ALK2 R206H; in assay [1]) were at most 100 nM and at most 10 nM, respectively.
For `CCOC(=O)N1CCN(c2ccnc3[nH]c(-c4ccc(C5(OC)CCOCC5)cc4C#N)cc23)CC1` [Compound 455] the same measures were at most 100 nM and at most 10 nM.
As to `CCN1CCN(c2ccc(-c3cc4c(N5CCN(C(=O)C6CC6)CC5)ccnc4[nH]3)c(Cl)c2)CC1` [Compound 456], the figures for the IC50 (at human ALK2 R206H; in assay [1]) were at most 100 nM and at most 10 nM, respectively.
With `CCN1CC[C@@H](c2ccc(-c3cc4c(N5CCN(C(=O)C6CC6)CC5)ccnc4[nH]3)cc2)C(F)(F)C1` [Compound 458], the IC50 at human ALK2 R206H is at most 100 nM; in assay [1], at most 10 nM.
Regarding `CCN1CC[C@H](c2ccc(-c3cc4c(N5CCN(C(=O)C6CC6)CC5)ccnc4[nH]3)cc2)C(F)(F)C1` [Compound 459], the IC50 is at most 100 nM on human ALK2 R206H and at most 10 nM in assay [1].
For `CCN1CCC(c2ccc(-c3cc4c(N5CCN(C(=O)C6CC6)CC5)ccnc4[nH]3)cc2)C(F)(F)C1` (stereo not shown) [Compound 460] the same measures were at most 100 nM and at most 10 nM.
On to `O=C(C1CC1)N1CCN(c2ccnc3[nH]c(-c4ccc(N5CCN(CC(F)F)CC5)cc4)cc23)CC1` [Compound 461], for which the IC50 was 100 to 500 nM on human ALK2 R206H and at most 10 nM in assay [1].
With `O=C(O[C@H]1C[C@H](F)C1)N1CCN(c2ccnc3[nH]c(-c4ccc(C5(O)CCOCC5)cn4)cc23)CC1` [Compound 462], the figures for the IC50 (at human ALK2 R206H; in assay [1]) were at most 100 nM and at most 10 nM, respectively.
The like results for `CN1CCN(C(=O)COc2ccc(-c3cc4c(N5CCN(C(=O)C6CC6)CC5)ccnc4[nH]3)cc2)CC1` [Compound 464] were, in that order, 100 to 500 nM and at most 10 nM.
With `CC(C)N1CCC[C@@H](c2ccc(-c3cc4c(N5CCN(C(=O)OC6COC6)CC5)ccnc4[nH]3)cc2)C1` [Compound 466], the IC50 on human ALK2 R206H is at most 100 nM; in assay [1], at most 10 nM.
Take `CC(C)N1CCC(c2ccc(-c3cc4c(N5CCN(C(=O)OC6COC6)CC5)ccnc4[nH]3)cc2)CC1` [Compound 467]: the IC50 is at most 100 nM on human ALK2 R206H and at most 10 nM in assay [1].
As for `CC(C)N1CCC[C@H](c2ccc(-c3cc4c(N5CCN(C(=O)OC6COC6)CC5)ccnc4[nH]3)cc2)C1` [Compound 468], the IC50 on human ALK2 R206H was at most 100 nM; in assay [1], at most 10 nM.
For `CC(C)N1CCC(c2ccc(-c3cc4c(N5CCN(C(=O)OC6COC6)CC5)ccnc4[nH]3)nc2)CC1` [Compound 469] the same measures were at most 100 nM and at most 10 nM.
On to `CC(=O)N1CCc2sc(-c3[nH]c4nccc(N5CCN(C(=O)OC6COC6)CC5)c4c3C#N)nc2C1` [Compound 470], for which the figures for the IC50 (on human ALK2 R206H; in assay [1]) were at most 100 nM and at most 10 nM, respectively.
With `COC1(c2ccc(-c3cc4c(N5CCN(C(=O)OC6COC6)CC5)ccnc4[nH]3)c(C#N)c2)CCOCC1` [Compound 472], the IC50 is at most 100 nM on human ALK2 R206H and at most 10 nM in assay [1].
For `CC(C)N1CCC(C)(c2ccc(-c3cc4c(N5CCN(C(=O)OC6COC6)CC5)ccnc4[nH]3)cc2)CC1` [Compound 473], the IC50 at human ALK2 R206H is at most 100 nM; in assay [1], at most 10 nM.
Take `CS(=O)(=O)N1CCc2nc(-c3cc4c(N5CCN(C(=O)OC6COC6)CC5)ccnc4[nH]3)sc2C1` [Compound 474]: the figures for the IC50 (on human ALK2 R206H; in assay [1]) were at most 100 nM and at most 10 nM, respectively.
On to `CCN1CCN(c2ccc(-c3cc4c(N5CCN(C(=O)C6CC6)CC5)ccnc4[nH]3)c(OC(F)F)c2)CC1` [Compound 475], for which the values for the IC50 (at human ALK2 R206H; in assay [1]) were at most 100 nM and at most 10 nM, respectively.
On to `CCOC(=O)N1CCN(c2ccnc3[nH]c(-c4ccc(C5(OC)CCN(C(C)CF)CC5)cn4)cc23)CC1` (stereo not shown) [Compound 476], for which the IC50 at human ALK2 R206H was at most 100 nM; in assay [1], at most 10 nM.
The like results for `CCN1CCN(c2ccc(-c3cc4c(N5CCN(C(=O)C6CC6)CC5)ccnc4[nH]3)c(OC(F)(F)F)c2)CC1` [Compound 477] were, in that order, at most 100 nM and at most 10 nM.
Turning to `COC1(c2ccc(-c3cc4c(N5CCN(C(=O)OC6COC6)CC5)ccnc4[nH]3)nc2)CCN(C[C@H](C)F)CC1` [Compound 478], the IC50 at human ALK2 R206H was at most 100 nM; in assay [1] it was at most 10 nM.
Turning to `COC1(c2ccc(-c3cc4c(N5CCN(C(=O)OC6COC6)CC5)ccnc4[nH]3)nc2)CCN(C[C@@H](C)F)CC1` [Compound 479], the results for the IC50 (at human ALK2 R206H; in assay [1]) were at most 100 nM and at most 10 nM, respectively.

Broadly, the IC50 is the midpoint of a concentration-inhibition curve.
